{"source": "paper PMC11212140", "about": "“Molecular Bidents with Two Electrophilic Warheads as a New Pharmacological Modality” (ACS Central Science, 2024)", "assay_in_all_cases": "KiNativ profiling in H3255 cells", "format_in_all_cases": "cell-based, human", "key": {"CDK11, CDK8": {"test_system": "CDK11, CDK8", "conditions": "2.5 µM; Lys2; DLKPANILVMGEGPER"}, "DRAK1, DRAK2": {"test_system": "DRAK1, DRAK2", "conditions": "2.5 µM; ATP Loop; GKFAVVR", "procedure,_shortened": "(§1)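 Kinase occupancy was assessed by KiNativ after intact H3255 cells were exposed to ZNL-0056 at 2.5 μM for two hours, with DMSO as the vehicle condition.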"}, "MASTL": {"test_system": "T1, MASTL", "T1 construct": "purchased ActivX Biosciences (KiNativ)", "conditions": "2.5 µM", "procedure,_shortened": "as §1"}, "ILK": {"test_system": "T2, ILK", "T2 construct": "purchased ActivX Biosciences (KiNativ)", "conditions": "2.5 µM"}, "JAK1 domain1": {"test_system": "T3, JAK1 domain1", "T3 construct": "JAK1 domain1; purchased ActivX Biosciences (KiNativ)", "conditions": "2.5 µM; Activation Loop; QLASALSYLEDKDLVHGNVCTKNLLLAR"}, "ATR": {"test_system": "T4, ATR", "T4 construct": "purchased ActivX Biosciences (KiNativ)", "conditions": "2.5 µM; ATP; FYIMMCKPK", "protocol": "(§2) Cellular target engagement assays […]\n(§3) H3255 cells were plated with 6.5x10^6 per condition in fresh media in 15 cm plates and treated the 80% confluency for 2 hours with DMSO or 2.5 μM of ZNL-0056. To harvest cells, plates were washed 3 times with cold PBS, then collected by scraping into 4 mL of cold PBS containing protease and phosphatase inhibitors. Cells were pelleted by centrifugation at 1350 g at 4 ℃ for 5 minutes and immediately frozen in liquid nitrogen. The frozen samples were sent to ActivX Biosciences (La Jolla, CA) for the remainder of the KiNativ profiling experiment4. […]"}, "CDK10": {"test_system": "T5, CDK10", "T5 construct": "purchased ActivX Biosciences (KiNativ)", "conditions": "2.5 µM; Lys2; DLKVSNLLMTDK", "protocol": "as §2, §3"}, "CLK1": {"test_system": "T6, CLK1", "T6 construct": "purchased ActivX Biosciences (KiNativ)", "conditions": "2.5 µM; Lys2; LTHTDLKPENILFVQSDYTEAYNPK", "protocol": "as §2, §3"}, "DNAPK": {"test_system": "T7, DNAPK", "T7 construct": "purchased ActivX Biosciences (KiNativ)", "conditions": "2.5 µM, ATP", "protocol": "as §2, §3"}, "MAP2K2": {"test_system": "T8, MAP2K2", "T8 construct": "purchased ActivX Biosciences (KiNativ)", "conditions": "2.5 µM; Lys2; HQIMHRDVKPSNILVNSR", "protocol": "as §2, §3"}, "MARK3": {"test_system": "T9, MARK3", "T9 construct": "purchased ActivX Biosciences (KiNativ)", "conditions": "2.5 µM; Lys1; EVAIKIIDKTQLNPTSLQK", "protocol": "as §2, §3"}, "[1]": {"test_system": "MSK1 domain1, MSK2 domain1", "conditions": "2.5 µM; ATP Loop; VLGTGAYGKVFLVR", "protocol": "as §2, §3"}, "MST3, MST4, YSK1": {"test_system": "MST3, MST4, YSK1", "conditions": "2.5 µM; Activation Loop; LADFGVAGQLTDTQIKR", "protocol": "as §2, §3"}, "NuaK2": {"test_system": "T10, NuaK2", "T10 construct": "purchased ActivX Biosciences (KiNativ)", "conditions": "2.5 µM; Lys1; LVAIKSIR", "protocol": "as §2, §3"}, "PAN3": {"test_system": "T11, PAN3", "T11 construct": "purchased ActivX Biosciences (KiNativ)", "conditions": "2.5 µM, ATP", "protocol": "as §2, §3"}, "PCTAIRE1": {"test_system": "T12, PCTAIRE1", "T12 construct": "purchased ActivX Biosciences (KiNativ)", "conditions": "2.5 µM; Lys1; SKLTDNLVALKEIR", "protocol": "as §2, §3"}, "PKD2": {"test_system": "T13, PKD2", "T13 construct": "purchased ActivX Biosciences (KiNativ)", "conditions": "2.5 µM; Lys1; DVAVKVIDK", "protocol": "as §2, §3"}, "RSK1 domain1": {"test_system": "T14, RSK1 domain1", "T14 construct": "RSK1 domain1; purchased ActivX Biosciences (KiNativ)", "conditions": "2.5 µM", "protocol": "as §2, §3"}, "SGK3": {"test_system": "T15, SGK3", "T15 construct": "purchased ActivX Biosciences (KiNativ)", "conditions": "2.5 µM; Lys1; FYAVKVLQK", "protocol": "as §2, §3"}, "SRPK1, SRPK2": {"test_system": "SRPK1, SRPK2", "conditions": "2.5 µM; Lys1; FVAMKVVK", "protocol": "as §2, §3"}, "TAO1, TAO3": {"test_system": "TAO1, TAO3", "conditions": "2.5 µM; Lys2; DIKAGNILLTEPGQVK", "protocol": "as §2, §3"}, "[2]": {"conditions": "Protein Kinase Domain, ISMADVKFSFQCPGR"}, "[3]": {"conditions": "Activation Loop, LTDFGLSKEAIDHEKK"}}, "data": [{"molecule": "C=CC(=O)Nc1cc(C(=O)Nc2nc3cccc(C)c3n2[C@@H]2CCCCN(C(=O)C=C)C2)cs1", "note": "[ZNL-0056]", "values": [{"measurement": "Inhibition", "setting": "CDK11, CDK8", "result": -0.339, "unit": "%"}, {"measurement": "Inhibition", "setting": "DRAK1, DRAK2", "result": 46.6, "unit": "%"}, {"measurement": "Inhibition", "setting": "MASTL; ATP Loop, GAFGKVYLGQK", "result": 13.0, "unit": "%"}, {"measurement": "Inhibition", "setting": "MASTL; Lys1, LYAVKVVK", "result": 16.2, "unit": "%"}, {"measurement": "Inhibition", "setting": "ILK; Lys1, WQGNDIVVKVLK", "result": -6.7, "unit": "%"}, {"measurement": "Inhibition", "setting": "ILK; [2]", "result": -9.2, "unit": "%"}, {"measurement": "Inhibition", "setting": "JAK1 domain1", "result": -24.3, "unit": "%"}, {"measurement": "Inhibition", "setting": "ATR", "result": 18.0, "unit": "%"}, {"measurement": "Inhibition", "setting": "CDK10", "result": 23.6, "unit": "%"}, {"measurement": "Inhibition", "setting": "CLK1", "result": -15.4, "unit": "%"}, {"measurement": "Inhibition", "setting": "DNAPK; EHPFLVKGGEDLR", "result": 26.5, "unit": "%"}, {"measurement": "Inhibition", "setting": "DNAPK; KGGSWIQEINVAEK", "result": -18.3, "unit": "%"}, {"measurement": "Inhibition", "setting": "MAP2K2", "result": 5.5, "unit": "%"}, {"measurement": "Inhibition", "setting": "MARK3", "result": 17.8, "unit": "%"}, {"measurement": "Inhibition", "setting": "[1]", "result": 15.3, "unit": "%"}, {"measurement": "Inhibition", "setting": "MST3, MST4, YSK1", "result": 12.7, "unit": "%"}, {"measurement": "Inhibition", "setting": "NuaK2", "result": 1.9, "unit": "%"}, {"measurement": "Inhibition", "setting": "PAN3; IQKSSNFGYITSCYK", "result": -8.7, "unit": "%"}, {"measurement": "Inhibition", "setting": "PAN3; VMDPTKILITGK", "result": 10.8, "unit": "%"}, {"measurement": "Inhibition", "setting": "PCTAIRE1", "result": -1.5, "unit": "%"}, {"measurement": "Inhibition", "setting": "PKD2", "result": 10.2, "unit": "%"}, {"measurement": "Inhibition", "setting": "RSK1 domain1; [3]", "result": 5.8, "unit": "%"}, {"measurement": "Inhibition", "setting": "RSK1 domain1; Lys1, KVTRPDSGHLYAMKVLK", "result": -35.1, "unit": "%"}, {"measurement": "Inhibition", "setting": "SGK3", "result": 10.1, "unit": "%"}, {"measurement": "Inhibition", "setting": "SRPK1, SRPK2", "result": -8.1, "unit": "%"}, {"measurement": "Inhibition", "setting": "TAO1, TAO3", "result": -18.6, "unit": "%"}]}, {"molecule": "C=CC(=O)Nc1cc(Nc2nccc(-c3cn(C)c4ccccc34)n2)c(OC)cc1N(C)CCN(C)C", "note": "[Osimertinib, osimertinib, reference compound]", "values": [{"measurement": "Inhibition", "setting": "CDK11, CDK8", "result": 24.8, "unit": "%"}, {"measurement": "Inhibition", "setting": "DRAK1, DRAK2", "result": 13.6, "unit": "%"}, {"measurement": "Inhibition", "setting": "MASTL; ATP Loop, GAFGKVYLGQK", "result": 16.6, "unit": "%"}, {"measurement": "Inhibition", "setting": "MASTL; Lys1, LYAVKVVK", "result": 23.8, "unit": "%"}, {"measurement": "Inhibition", "setting": "ILK; Lys1, WQGNDIVVKVLK", "result": -18.1, "unit": "%"}, {"measurement": "Inhibition", "setting": "ILK; [2]", "result": 14.1, "unit": "%"}, {"measurement": "Inhibition", "setting": "JAK1 domain1", "result": -25.4, "unit": "%"}, {"measurement": "Inhibition", "setting": "ATR", "result": -16.2, "unit": "%"}, {"measurement": "Inhibition", "setting": "CDK10", "result": 40.2, "unit": "%"}, {"measurement": "Inhibition", "setting": "CLK1", "result": 21.2, "unit": "%"}, {"measurement": "Inhibition", "setting": "DNAPK; EHPFLVKGGEDLR", "result": 29.9, "unit": "%"}, {"measurement": "Inhibition", "setting": "DNAPK; KGGSWIQEINVAEK", "result": 7.8, "unit": "%"}, {"measurement": "Inhibition", "setting": "MAP2K2", "result": 12.1, "unit": "%"}, {"measurement": "Inhibition", "setting": "MARK3", "result": -26.0, "unit": "%"}, {"measurement": "Inhibition", "setting": "[1]", "result": -40.8, "unit": "%"}, {"measurement": "Inhibition", "setting": "MST3, MST4, YSK1", "result": -4.8, "unit": "%"}, {"measurement": "Inhibition", "setting": "NuaK2", "result": -2.3, "unit": "%"}, {"measurement": "Inhibition", "setting": "PAN3; IQKSSNFGYITSCYK", "result": 10.9, "unit": "%"}, {"measurement": "Inhibition", "setting": "PAN3; VMDPTKILITGK", "result": 3.7, "unit": "%"}, {"measurement": "Inhibition", "setting": "PCTAIRE1", "result": -20.8, "unit": "%"}, {"measurement": "Inhibition", "setting": "PKD2", "result": -2.1, "unit": "%"}, {"measurement": "Inhibition", "setting": "RSK1 domain1; [3]", "result": -14.9, "unit": "%"}, {"measurement": "Inhibition", "setting": "RSK1 domain1; Lys1, KVTRPDSGHLYAMKVLK", "result": -11.7, "unit": "%"}, {"measurement": "Inhibition", "setting": "SGK3", "result": 2.9, "unit": "%"}, {"measurement": "Inhibition", "setting": "SRPK1, SRPK2", "result": 21.8, "unit": "%"}, {"measurement": "Inhibition", "setting": "TAO1, TAO3", "result": 6.6, "unit": "%"}]}]}
